The target in this test is AtCHI (Arabidopsis thaliana, UniProt P41088). The settings on record: cyclization of the chalcone; constant not given.

Molecules are shown by their SMILES.

AtCHI, sequence (P41088 whole entry): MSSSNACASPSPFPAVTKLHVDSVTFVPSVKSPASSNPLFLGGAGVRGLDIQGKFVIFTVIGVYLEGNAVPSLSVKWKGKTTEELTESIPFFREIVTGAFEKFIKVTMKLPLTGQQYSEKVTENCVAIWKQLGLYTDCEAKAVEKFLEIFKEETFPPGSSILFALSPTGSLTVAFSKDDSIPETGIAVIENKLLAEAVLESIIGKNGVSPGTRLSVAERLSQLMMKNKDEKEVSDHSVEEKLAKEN

With `O=C1C[C@@H](c2ccc(O)cc2)Oc2cc(O)cc(O)c21` [(2S)-naringenin], the CHI activity assay result is reported as “AtCHI catalyzes the in vitro formation of (2S)-naringenin”.

The values above are taken from article PMC3880581 (Nature, 2012).
